According to ChEMBL document CHEMBL1153339, “Design, synthesis, and anti-HCV activity of thiourea compounds” (Bioorg Med Chem Lett, 2009):

system: not listed separately; experiment: Cytotoxicity against human Ava5 cells; type: cell-based; details: not given

Row | SMILES | CC50
1 | S=C(NCc1ccccc1)Nc1cccc(OCCCCCc2ccccc2)c1 | 32 µM
2 | NC(=S)Nc1cccc(OCCCCCOc2cccc3cnccc23)c1 | 26 µM
3 | COc1ccc(OCCCCCOc2cccc(NC(N)=S)c2)cc1 | > 50 µM
4 | NC(=S)Nc1ccc(OCCCCCc2ccccc2)cc1 | 10 µM
5 | NC(=S)Nc1cccc(OCCCCCOc2cccc(Cc3ccccc3)c2)c1 | 13 µM
6 | NC(=S)Nc1cccc(OCCCCCOc2cccc(Oc3ccccc3)c2)c1 | 18 µM
7 | NC(=S)Nc1cccc(OCCCCCOc2ccc(N3CCCCC3)cc2)c1 | 12 µM
8 | NC(=S)Nc1cccc(OCCCCCOc2ccc(N3CCCC3)cc2)c1 | 16 µM
9 | S=C(NCCc1ccccc1)Nc1cccc(OCCCCCc2ccccc2)c1 | 33 µM
10 | NC(=S)Nc1cccc(OCCCCCOc2ccc(N3CCOCC3)cc2)c1 | > 50 µM
11 | NC(=S)Nc1cccc(OCCCCCOc2ccccc2-c2ccccc2)c1 | 13 µM
12 | CCCNC(=S)Nc1cccc(OCCCCCc2ccccc2)c1 | 32 µM
13 | NC(=S)Nc1cccc(OCCCCCOc2ccncc2)c1 | > 50 µM
14 | NC(=S)Nc1cccc(OCCCCCOc2ccc(Br)cc2)c1 | 19 µM
15 | NC(=S)Nc1cccc(OCCc2ccccc2)c1 | > 50 µM
16 | NC(=S)Nc1cccc(OCCCCCOc2cccc(C(=O)c3ccccc3)c2)c1 | 13 µM
17 | NC(=S)Nc1cccc(OCCCCCOc2ccc(F)cc2)c1 | 5 µM
18 | NC(=S)Nc1cccc(OCCCCCOc2cccc3ccccc23)c1 | 14 µM
19 | NC(=S)Nc1cccc(OCCCCCOc2ccc(C(=O)O)cc2)c1 | > 50 µM
20 | NC(=S)Nc1cccc(OCCCCCc2ccccc2)c1 | 22 µM
21 | CNC(=S)Nc1cccc(OCCCCCc2ccccc2)c1 | > 50 µM
22 | NC(=S)Nc1cccc(OCCCCCOc2cccc3[nH]ccc23)c1 | > 50 µM
23 | NC(=S)Nc1cccc(OCCCCCOc2ccc(-c3ccccc3)cc2)c1 | > 50 µM
24 | NC(=S)Nc1cccc(OCCCCCOc2ccc(Cl)cc2)c1 | 7 µM

system: Hepatitis C virus; experiment: Antiviral activity against HCV 1b infected in human Ava5 cells expressing EG(delta-4AB)SEAP fusion protein by subgenomic replicon assay; type: functional, organism-based, Hepacivirus hominis; details: genotype 1b

Row | SMILES | EC50
25 | S=C(NCc1ccccc1)Nc1cccc(OCCCCCc2ccccc2)c1 | 7.24 µM
26 | NC(=S)Nc1cccc(OCCCCCOc2cccc3cnccc23)c1 | 0.481 µM
27 | COc1ccc(OCCCCCOc2cccc(NC(N)=S)c2)cc1 | 0.218 µM
28 | NC(=S)Nc1ccc(OCCCCCc2ccccc2)cc1 | 0.197 µM
29 | NC(=S)Nc1cccc(OCCCCCOc2cccc(Cc3ccccc3)c2)c1 | 0.058 µM
30 | NC(=S)Nc1cccc(OCCCCCOc2cccc(Oc3ccccc3)c2)c1 | 0.107 µM
31 | NC(=S)Nc1cccc(OCCCCCOc2ccc(N3CCCCC3)cc2)c1 | 0.407 µM
32 | NC(=S)Nc1cccc(OCCCCCOc2ccc(N3CCCC3)cc2)c1 | 0.913 µM
33 | S=C(NCCc1ccccc1)Nc1cccc(OCCCCCc2ccccc2)c1 | 13.4 µM
34 | NC(=S)Nc1cccc(OCCCCCOc2ccc(N3CCOCC3)cc2)c1 | 0.485 µM
35 | NC(=S)Nc1cccc(OCCCCCOc2ccccc2-c2ccccc2)c1 | 0.097 µM
36 | CCCNC(=S)Nc1cccc(OCCCCCc2ccccc2)c1 | 0.708 µM
37 | NC(=S)Nc1cccc(OCCCCCOc2ccncc2)c1 | 2.99 µM
38 | NC(=S)Nc1cccc(OCCCCCOc2ccc(Br)cc2)c1 | 0.072 µM
39 | NC(=S)Nc1cccc(OCCc2ccccc2)c1 | 0.335 µM
40 | NC(=S)Nc1cccc(OCCCCCOc2cccc(C(=O)c3ccccc3)c2)c1 | 0.218 µM
41 | NC(=S)Nc1cccc(OCCCCCOc2ccc(F)cc2)c1 | 0.072 µM
42 | NC(=S)Nc1cccc(OCCCCCOc2cccc3ccccc23)c1 | 0.058 µM
43 | NC(=S)Nc1cccc(OCCCCCOc2ccc(C(=O)O)cc2)c1 | > 50 µM
44 | NC(=S)Nc1cccc(OCCCCCc2ccccc2)c1 | 0.048 µM
45 | CNC(=S)Nc1cccc(OCCCCCc2ccccc2)c1 | 0.822 µM
46 | NC(=S)Nc1cccc(OCCCCCOc2cccc3[nH]ccc23)c1 | 0.355 µM
47 | NC(=S)Nc1cccc(OCCCCCOc2ccc(-c3ccccc3)cc2)c1 | 0.191 µM
48 | NC(=S)Nc1cccc(OCCCCCOc2ccc(Cl)cc2)c1 | 0.072 µM

system: not listed separately; experiment: Selectivity index, ratio of CC50 for human Ava5 cells to EC50 for HCV 1b; details: not given

Row | SMILES | Ratio CC50/EC50
49 | S=C(NCc1ccccc1)Nc1cccc(OCCCCCc2ccccc2)c1 | 4
50 | NC(=S)Nc1cccc(OCCCCCOc2cccc3cnccc23)c1 | 54
51 | COc1ccc(OCCCCCOc2cccc(NC(N)=S)c2)cc1 | >229
52 | NC(=S)Nc1ccc(OCCCCCc2ccccc2)cc1 | 51
53 | NC(=S)Nc1cccc(OCCCCCOc2cccc(Cc3ccccc3)c2)c1 | 224
54 | NC(=S)Nc1cccc(OCCCCCOc2cccc(Oc3ccccc3)c2)c1 | 168
55 | NC(=S)Nc1cccc(OCCCCCOc2ccc(N3CCCCC3)cc2)c1 | 29
56 | NC(=S)Nc1cccc(OCCCCCOc2ccc(N3CCCC3)cc2)c1 | 18
57 | S=C(NCCc1ccccc1)Nc1cccc(OCCCCCc2ccccc2)c1 | 2
58 | NC(=S)Nc1cccc(OCCCCCOc2ccc(N3CCOCC3)cc2)c1 | >103
59 | NC(=S)Nc1cccc(OCCCCCOc2ccccc2-c2ccccc2)c1 | 134
60 | CCCNC(=S)Nc1cccc(OCCCCCc2ccccc2)c1 | 45
61 | NC(=S)Nc1cccc(OCCCCCOc2ccncc2)c1 | >17
62 | NC(=S)Nc1cccc(OCCCCCOc2ccc(Br)cc2)c1 | 264
63 | NC(=S)Nc1cccc(OCCc2ccccc2)c1 | >149
64 | NC(=S)Nc1cccc(OCCCCCOc2cccc(C(=O)c3ccccc3)c2)c1 | 60
65 | NC(=S)Nc1cccc(OCCCCCOc2ccc(F)cc2)c1 | 69
66 | NC(=S)Nc1cccc(OCCCCCOc2cccc3ccccc23)c1 | 241
67 | NC(=S)Nc1cccc(OCCCCCOc2ccc(C(=O)O)cc2)c1 | >1
68 | NC(=S)Nc1cccc(OCCCCCc2ccccc2)c1 | 458
69 | CNC(=S)Nc1cccc(OCCCCCc2ccccc2)c1 | >61
70 | NC(=S)Nc1cccc(OCCCCCOc2cccc3[nH]ccc23)c1 | >141
71 | NC(=S)Nc1cccc(OCCCCCOc2ccc(-c3ccccc3)cc2)c1 | >262
72 | NC(=S)Nc1cccc(OCCCCCOc2ccc(Cl)cc2)c1 | 97
